Literature values in paper PMC8154576, “GPR120/FFAR4 Pharmacology: Focus on Agonists in Type 2 Diabetes Mellitus Drug Discovery” (Journal of Medicinal Chemistry, 2021).
pEC50: −log10 of the molar value. Read-outs that look alike come from different tables or passages of the source. Marks after values point to notes of the source that are not given here.

Experiments:
GPR120 [1] = tested on: GPR120
[2] = tested on: MCF-7 and MDA-MB-231 cell lines; design: method as in PMID 26821052
[3] = tested on: pancreatic cancer PANC-1 cells; design: method as in PMID 26282200
MDA-MB-231 cell line = tested on: MDA-MB-231 cell line; design: method as in PMID 28456993
[4] = tested on: rat’s anterior pituitary adenoma GH3 cells; design: method as in PMID 29843779
hGPR120 [5] = tested on: hGPR120
hGPR40 [6] = details: for pEC50: read-out: hGPR40 EC50 (Ca2+)
[7] = tested on: Zucker diabetic fatty rats; design: method as in PMID 28148462; details: 2 weeks, vehicle 192 mg/dL
db/db mice = tested on: db/db mice; design: method as in PMID 28148462; details: at the same concentrations (10 and 100 mg/kg), vehicle 276 mg/dL
hGPR120 [8] = details: for pEC50: read-out: hGPR120 EC50 (β-arr)
C57BL/6J mice = details: for reduction of plasma glucose, ΔAUC in IPGTT: C57BL/6J mice
[9] = not given; remark: listed apart in the source
mice = details: for reduction of plasma glucose, ΔAUC in OGTT: C57BL/6DIO mice
hGPR120 [10] = details: for pEC50: Table 3, read-out: hGPR120 EC50 (IP1)
hGPR40 [11] = tested on: hGPR40
mGPR120 = tested on: mGPR120; design: method as in PMID 27815121
[12] = not given; remark: listed apart in the source
[13] = design: method as in PMID 24881566
[14] = tested on: human intestinal NCI-H716 cell line; design: method as in PMID 24881566
MIN6 cell line = tested on: MIN6 cell line; design: method as in PMID 24881566; details: glucose 25 mM, compared to glibenclamide
[15] = design: method as in PMID 27570890
GPR120 [16] = tested on: GPR120; design: method as in PMID 29206860; details: cAMP assay in a CHO cell line; read-out: EC50 increase of cAMP levels
lean mice = tested on: lean mice; design: method as in PMID 29206860; details: pretreatment
STC-1 cells = details: enteroendocrine STC-1 cell line
[17] = Table 2, read-out: hGPR120 EC50 (Ca2+)
[18] = Table 3, read-out: hGPR40 EC50 (IP1)

CCCCC/C=C\C/C=C\CCCCCCCC(=O)OC [1’s methyl ester]
GPR120 activity in vitro (GPR120 [1]): inactive in vitro

Cc1ccc(S(=O)(=O)NC2c3ccccc3Oc3ccccc32)cc1 [Compound 5]
migration induced by 1 (MDA-MB-231 cell line): inhibited

CC(C)=CCC/C(C)=C/CC/C(C)=C/Cc1c(O)cc(C)c(C(=O)O)c1O [Compound 7, grifolic acid]
necrosis of GH3 cells [4]: dose- and time-dependently induced the necrosis

COc1ccc(C(F)(F)F)cc1COc1ccc(CCC(=O)O)cc1C [Compound 19]
selectivity GPR120/GPR40, human (hGPR120 [5]): 40 fold | pEC50 (hGPR120 [5]; Table 1, read-out: hGPR120 EC50 (Ca2+)): 6.52 | pEC50 (hGPR40 [6]; Table 1): 4.93 | selectivity GPR120/GPR40, mouse (mouse GPR120): 80 fold | oral bioavailability (C57BL/6J mice): excellent oral bioavailability | whole blood glucose levels ([7]; 10 mg/kg): 151 mg/dL | whole blood glucose levels ([7]; 100 mg/kg): 139 mg/dL | glucose levels (db/db mice): 106 mg/dL

CCc1ccc(-c2noc(C(F)(F)F)c2COc2c(F)cc(CCC(=O)O)cc2F)cc1 [Compound 20]
pEC50 (hGPR120 [5]; [17]): 7.24 | pEC50 (hGPR120 [8]; Table 2): 7.22 | pharmacokinetic (PK) profile: good pharmacokinetic (PK) profile | reduction of plasma glucose, ΔAUC in IPGTT (C57BL/6J mice; 1 mg/kg): 30% | reduction of plasma glucose, ΔAUC in IPGTT (C57BL/6J mice; 3 mg/kg): 35% | reduction of plasma glucose, ΔAUC in IPGTT (C57BL/6J mice; 10 mg/kg): 54%

O=C(O)CCc1cc(F)c(OCc2c(-c3ccc(Cl)cc3F)nsc2C(F)(F)F)c(F)c1 [Compound 21]
pEC50 (hGPR120 [5]; [17]): 7.38 | pEC50 (hGPR120 [8]; Table 2): 6.84 | pEC50 (hGPR40 [6]; Table 2): < 5.30 | pharmacokinetic profile [9]: good pharmacokinetic profile | reduction of plasma glucose, ΔAUC in OGTT (mice; 1 mg/kg): 61% | reduction of plasma glucose, ΔAUC in OGTT (mice; 3 mg/kg): 83%

O=C(O)CCc1cc(F)c(OCc2c(C(F)(F)F)ccn2-c2ccc(Cl)cc2)c(F)c1 [Compound 22]
pEC50 (hGPR120 [5]; [17]): 7.10 | GPR120 selectivity over GPR40, human (hGPR120 [5]; calcium assay): 42 fold | pEC50 (hGPR120 [5]; low-expressing endogenous HT-29 cell line, read-out: EC50 hGPR120 calcium assay): 6.86 | pEC50 (hGPR120 [8]; Table 2): 7.16 | pEC50 (hGPR40 [6]; Table 2): 5.48 | GPR120 selectivity over GPR40, mouse (mouse GPR120; calcium assay): 18 fold | pEC50 (mouse GPR120; read-out: EC50 GPR120 calcium assay in mouse): 6.71 | clearance ([9]; mouse, rat, and dog): low clearance | half-life ([9]; mouse, rat, and dog): suitable half-life | reduction in glucose levels in OGTT (mice; diet-induced obese mice, 3 mg/kg, vs saxagliptin 1 mg/kg): comparable to saxagliptin

O=C(O)CCc1cc2cc(-c3cc(C(F)(F)F)ccc3F)ccc2o1 [Compound 23]
percentage of receptor activation, hGPR120 (hGPR120 [10]): 73% | selectivity over hGPR40 (hGPR120 [10]): 29 fold | pEC50 (hGPR120 [10]): 7.20 | pEC50 (hGPR40 [11]; read-out: IP1 EC50 GPR40): 5.74 | percentage of receptor activation, mGPR120 (mGPR120): 75% | PK properties (oral bioavailability, half-life, plasma clearance) (mouse): suitable PK properties | blood glucose levels in OGTT (mice; wild-type and GPR120 KO mice, 30 and 100 mg/kg): acute reduction of blood glucose levels

COC1CC(Oc2cc(F)c(F)c(-c3ccc4c(c3)CCC(CCC(=O)O)O4)c2)C1 (centres unmarked) [Compound 24]
pEC50 (hGPR120 [8]; Table 3): 7.62 | pEC50 (hGPR120 [10]): 7.46 | pEC50 (hGPR40 [11]; [18]): < 5.00 | half-life ([9]; several species): long half-life | oral bioavailability ([9]; several species): high oral bioavailability | in vivo efficacy in OGTT (mice): good in vivo efficacy | glucose levels in OGTT (mice; 3 and 10 mg/kg): dose-dependently reduced glucose levels

Fc1ccc(OC2CCC2)cc1-c1ccc2c(c1)CC[C@H](CCc1nnn[nH]1)O2 [Compound 25]
pEC50 (hGPR120 [8]; Table 3): 7.08 | pEC50 (hGPR120 [10]): 6.66 | pEC50 (hGPR40 [11]; [18]): < 5.00 | in vivo efficacy in OGTT (mice): good in vivo efficacy

O=C(O)CC1CCC2(CC1)CCN(c1cc(OC(F)(F)F)ccc1Cl)CC2 [Compound 26]
pEC50 (hGPR40 [11]; [18]): < 5.00 | unbound clearance ([9]; rat, mouse, dog, and Rhesus): too high unbound clearance | whole blood glucose levels in OGTT (mice; lean mice (wild-type/GPR120 KO), 30 and 100 mg/kg): dose-dependently reduced whole blood glucose levels | insulin resistance (HOMA-IR) (DIO mice; hyperinsulinemic-euglycemic DIO mouse clamp, days 14 and 28): reduction in insulin resistance

Cc1ccc(-n2nc(C)c3cnc(-c4ccc([C@@H]5C[C@H]5C(=O)O)cc4F)cc32)nc1 [Compound 28]
pEC50 (hGPR120 [5]; Table 3, read-out: hGPR120 EC50 (Ca2+)): 6.13 | pEC50 (hGPR40 [6]; Table 3): < 4.00 | pEC50 (muGPR40; FLIPR format, overexpressed mouse GPR40 in cell line, unit inferred): < 4.00 | oral exposure [9]: moderate oral exposure | decrease in oral glucose excursion in OGTT (mice; C57BL/6J mice): 45% | effect on glucose excursion in OGTT (mice; GPR120 KO mice): no effect | reduction of glucose excursion in OGTT (mice; wild-type mice): 47% | selectivity over 30 several targets [12]: good selectivity

OCCCc1c(F)cc(OCc2c(-c3ccc(Cl)cc3)csc2C(F)(F)F)cc1F [Compound 30]
outcome in IPGTT (C57BL/6J mice; GPR120 C57BL6 mice): positive outcomes | outcome in OGTT (mice; GPR120 DIO mice): positive outcomes

COc1ccc(S(=O)(=O)Nc2c(C)cc(C)cc2C)cc1 [Compound 31]
hGPR120 pEC50 (Ca2+) (hGPR120 [5]; Table 4): 6.3 ^d | hGPR40 pEC50 (Ca2+) (hGPR40 [6]; Table 4): <4.5 ^d | solubility in simulated intestinal fluid (FASSIF) [13]: weak solubility | GLP-1 secretion [14]: evoked GLP-1 secretion | insulin output in GSIS (MIN6 cell line): dose-dependently increased insulin output | selectivity for GPR120 over more than 65 targets, including GPR40, GPR43, GPR41 [12]: at least 100 fold

O=S1(=O)c2ccccc2CN1c1cc(F)cc(Oc2ccccn2)c1 [Compound 32]
hGPR120 pEC50 (Ca2+) (hGPR120 [5]; Table 4): 6.63 ^d | hGPR120 pEC50 (β-arr) (hGPR120 [8]; Table 4): 6.91 ^d | selectivity for GPR120 over GPR40 (GPR120 [1]): > 300 fold | glucose levels in OGTT (mice; C57BL6 mice, 10 mg/kg orally, compared to vehicle control): decrease in glucose levels | decrease in body weight, chronic study (DIO mice; DIO wild-type mice): 7–9% | glucose levels, chronic study (DIO mice; DIO wild-type mice): reduced glucose levels | effect in chronic study (DIO mice; mice lacking GPR120): no effect | solubility in PBS [15]: relatively low solubility

C#Cc1cc(Oc2cccnc2)cc(N2Cc3ccccc3S2(=O)=O)c1 [Compound 33]
pEC50 (hGPR120 [5]; Table 4, read-out: hGPR120 EC50 (Ca2+)): 6.92 | activity against mGPR40 (muGPR40): no activity | pEC50 (GPR120 [16]): 7.22 | glucose levels in OGTT (mice; lean male mice): reduce dose-dependently glucose levels | insulin concentration in IVGTT (lean mice): increase of insulin concentration | GLP-1 secretion (STC-1 cells): boost GLP-1 secretion

N#C[C@@H]1C[C@@H]2C[C@@H]2N1C(=O)[C@@H](N)C12CC3CC(CC(O)(C3)C1)C2 [saxagliptin]
reduction of plasma glucose, ΔAUC in OGTT (mice; 1 mg/kg): 87%
